From ChEMBL document CHEMBL1201862, “PubChem BioAssay data set” (2004)
Active and inactive are the calls of the source.

Tests used:
[1] = luciferase reporter signal suppression in cells – H4 neuroglioma cells, luminescence, dose response (AID 1990); type: functional, cell-based
[2] = Luminescence Cell-Based Dose Response HTS to Identify Inhibitors of 5'UTR Stem-Loop Driven Prion Protein mRNA Translation in H4 Neuroglioblastoma Cells. [Related pubchem assays: 1827 (Project Summary), 1813 (Primary HTS)]; type: functional
[3] = alpha-synuclein stem-loop luciferase translation blockers – H4 neuroglioma cells, luminescence, confirmation (AID 1988); type: functional, cell-based
[4] = Luminescence Cell-Based Dose Retest to Confirm Inhibitors of Cancer Stem Cells. [Related pubchem assays (depositor defined):AID2717, AID2721]; type: functional; settings: Homo sapiens
[5] = system: Vero; assay: cells; type: functional; settings: Chlorocebus sabaeus
[6] = target: T1, Carboxy-terminal domain RNA polymerase II polypeptide A small phosphatase 1 (Homo sapiens, UniProt Q9GZU7); assay: CTDSP1 inhibitors, concentration-response, biochemical, absorbance readout, ultra-high-throughput screen actives (AID 540297); type: functional
T1 sequence (Q9GZU7 whole entry): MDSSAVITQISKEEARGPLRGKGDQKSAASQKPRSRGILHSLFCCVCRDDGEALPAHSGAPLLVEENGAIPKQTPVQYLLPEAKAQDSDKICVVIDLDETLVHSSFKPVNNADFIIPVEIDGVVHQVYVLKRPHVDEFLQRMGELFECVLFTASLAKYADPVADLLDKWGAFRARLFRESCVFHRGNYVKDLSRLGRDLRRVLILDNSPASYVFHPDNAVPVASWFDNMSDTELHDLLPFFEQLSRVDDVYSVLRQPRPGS

[7] = target: SWI/SNF-related matrix-associated actin-dependent regulator of chromatin subfamily A member 2 (Homo sapiens, UniProt P51531); assay: Luminescence-based cell-based high throughput dose response assay to identify activators of the function of SWI/SNF related, matrix associated, actin dependent regulator of chromatin, subfamily a, member 2 (SMARCA2, BRM).; type: functional
SWI/SNF-related matrix-associated actin-dependent regulator of chromatin subfamily A member 2, sequence (P51531 whole entry): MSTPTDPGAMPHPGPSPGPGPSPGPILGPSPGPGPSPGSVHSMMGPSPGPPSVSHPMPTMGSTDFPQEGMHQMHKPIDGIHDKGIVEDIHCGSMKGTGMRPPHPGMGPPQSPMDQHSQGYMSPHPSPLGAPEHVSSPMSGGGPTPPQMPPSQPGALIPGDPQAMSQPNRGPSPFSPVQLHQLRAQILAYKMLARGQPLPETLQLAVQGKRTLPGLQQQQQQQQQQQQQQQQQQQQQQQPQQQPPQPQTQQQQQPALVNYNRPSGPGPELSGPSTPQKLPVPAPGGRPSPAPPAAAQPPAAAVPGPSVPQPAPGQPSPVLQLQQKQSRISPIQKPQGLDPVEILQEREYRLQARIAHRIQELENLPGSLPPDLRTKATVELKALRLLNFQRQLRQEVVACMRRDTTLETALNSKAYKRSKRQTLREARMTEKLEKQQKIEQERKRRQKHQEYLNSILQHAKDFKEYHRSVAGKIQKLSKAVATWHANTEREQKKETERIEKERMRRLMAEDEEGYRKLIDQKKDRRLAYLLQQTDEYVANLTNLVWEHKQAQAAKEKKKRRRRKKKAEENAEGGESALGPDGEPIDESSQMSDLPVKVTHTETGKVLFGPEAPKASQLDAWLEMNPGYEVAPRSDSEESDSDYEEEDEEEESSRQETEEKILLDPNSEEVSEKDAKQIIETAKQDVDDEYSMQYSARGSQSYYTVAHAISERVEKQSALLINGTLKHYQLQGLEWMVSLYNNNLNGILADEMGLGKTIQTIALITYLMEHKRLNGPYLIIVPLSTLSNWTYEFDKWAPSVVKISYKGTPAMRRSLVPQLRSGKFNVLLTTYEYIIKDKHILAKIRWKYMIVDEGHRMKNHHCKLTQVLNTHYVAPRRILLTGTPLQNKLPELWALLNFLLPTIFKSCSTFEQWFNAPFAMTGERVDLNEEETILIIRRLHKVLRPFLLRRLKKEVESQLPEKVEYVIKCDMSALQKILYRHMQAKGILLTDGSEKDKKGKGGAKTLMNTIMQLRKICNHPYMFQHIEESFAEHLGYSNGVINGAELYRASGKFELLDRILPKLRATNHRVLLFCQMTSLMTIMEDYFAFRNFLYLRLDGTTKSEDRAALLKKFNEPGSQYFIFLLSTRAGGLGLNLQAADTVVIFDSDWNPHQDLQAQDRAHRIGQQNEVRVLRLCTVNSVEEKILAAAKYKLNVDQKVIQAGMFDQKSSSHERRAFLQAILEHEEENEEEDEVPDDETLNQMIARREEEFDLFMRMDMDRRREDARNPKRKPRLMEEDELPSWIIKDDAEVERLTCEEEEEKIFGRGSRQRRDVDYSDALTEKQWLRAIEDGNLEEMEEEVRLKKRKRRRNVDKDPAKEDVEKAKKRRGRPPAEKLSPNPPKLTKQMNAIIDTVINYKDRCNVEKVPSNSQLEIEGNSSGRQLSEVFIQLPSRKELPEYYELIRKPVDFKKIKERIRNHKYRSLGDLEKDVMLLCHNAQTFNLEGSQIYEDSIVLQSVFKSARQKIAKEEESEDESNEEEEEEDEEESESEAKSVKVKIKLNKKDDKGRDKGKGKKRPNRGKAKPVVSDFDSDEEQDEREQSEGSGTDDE

[8] = Counterscreen for activators of the function of SWI/SNF related, matrix associated, actin dependent regulator of chromatin, subfamily a, member 2 (SMARCA2, BRM): Luminescence-based cell-based high throughput dose response assay to identify non-selective compounds using the VP16 reporter assay.; type: functional
[9] = target: T2, Caspase-3 (Homo sapiens, UniProt P42574); type: functional;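 note: Dose-response selectivity test against caspase-3 for candidate inhibitors of sentrin-specific proteases (SENPs)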
T2 sequence (P42574 whole entry): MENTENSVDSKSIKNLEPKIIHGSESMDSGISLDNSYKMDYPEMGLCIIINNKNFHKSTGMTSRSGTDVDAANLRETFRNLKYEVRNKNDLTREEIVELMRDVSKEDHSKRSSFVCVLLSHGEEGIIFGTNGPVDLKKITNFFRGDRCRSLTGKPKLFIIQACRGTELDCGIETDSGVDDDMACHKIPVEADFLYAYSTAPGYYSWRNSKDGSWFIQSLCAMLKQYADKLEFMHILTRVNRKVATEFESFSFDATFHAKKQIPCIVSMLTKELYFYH

[10] = target: T3, Sentrin-specific protease 7 (Homo sapiens, UniProt Q9BQF6); type: functional;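 note: Luminescence-based dose-response confirmation of ultra-high-throughput screening hits, measuring inhibition of SENP7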
T3 sequence (Q9BQF6 whole entry): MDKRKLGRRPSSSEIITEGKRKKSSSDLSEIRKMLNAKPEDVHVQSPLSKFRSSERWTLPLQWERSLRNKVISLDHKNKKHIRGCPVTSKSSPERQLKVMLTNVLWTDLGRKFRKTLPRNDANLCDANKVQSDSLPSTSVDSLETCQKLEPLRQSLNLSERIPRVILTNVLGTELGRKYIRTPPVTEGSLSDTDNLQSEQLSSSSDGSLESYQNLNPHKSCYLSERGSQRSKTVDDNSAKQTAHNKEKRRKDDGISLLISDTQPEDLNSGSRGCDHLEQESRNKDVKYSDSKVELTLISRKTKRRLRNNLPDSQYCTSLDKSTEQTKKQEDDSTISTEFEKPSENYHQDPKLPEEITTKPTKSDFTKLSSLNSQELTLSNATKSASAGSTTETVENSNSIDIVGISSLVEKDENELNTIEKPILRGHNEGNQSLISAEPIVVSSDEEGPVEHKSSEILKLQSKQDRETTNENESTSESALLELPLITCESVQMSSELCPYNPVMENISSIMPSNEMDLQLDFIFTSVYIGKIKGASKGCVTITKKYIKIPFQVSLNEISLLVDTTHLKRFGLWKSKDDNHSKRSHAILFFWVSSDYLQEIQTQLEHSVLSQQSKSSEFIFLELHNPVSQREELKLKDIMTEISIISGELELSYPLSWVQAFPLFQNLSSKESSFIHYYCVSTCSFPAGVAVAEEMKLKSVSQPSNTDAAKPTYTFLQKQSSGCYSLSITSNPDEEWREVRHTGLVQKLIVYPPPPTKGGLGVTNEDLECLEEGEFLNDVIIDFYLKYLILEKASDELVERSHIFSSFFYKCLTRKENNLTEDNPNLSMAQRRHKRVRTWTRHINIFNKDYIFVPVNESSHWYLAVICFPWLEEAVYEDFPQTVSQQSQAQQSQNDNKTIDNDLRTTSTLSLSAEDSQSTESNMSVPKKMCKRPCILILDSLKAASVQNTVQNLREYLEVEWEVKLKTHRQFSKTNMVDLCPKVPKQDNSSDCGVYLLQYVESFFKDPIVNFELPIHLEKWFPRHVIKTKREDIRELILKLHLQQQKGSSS

[11] = target: T4, Sentrin-specific protease 6 (Homo sapiens, UniProt Q9GZR1); type: functional;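 note: Luminescence-based dose-response confirmatory assay of SENP6 inhibition, following up an ultra-high-throughput screen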
T4 sequence (Q9GZR1 whole entry): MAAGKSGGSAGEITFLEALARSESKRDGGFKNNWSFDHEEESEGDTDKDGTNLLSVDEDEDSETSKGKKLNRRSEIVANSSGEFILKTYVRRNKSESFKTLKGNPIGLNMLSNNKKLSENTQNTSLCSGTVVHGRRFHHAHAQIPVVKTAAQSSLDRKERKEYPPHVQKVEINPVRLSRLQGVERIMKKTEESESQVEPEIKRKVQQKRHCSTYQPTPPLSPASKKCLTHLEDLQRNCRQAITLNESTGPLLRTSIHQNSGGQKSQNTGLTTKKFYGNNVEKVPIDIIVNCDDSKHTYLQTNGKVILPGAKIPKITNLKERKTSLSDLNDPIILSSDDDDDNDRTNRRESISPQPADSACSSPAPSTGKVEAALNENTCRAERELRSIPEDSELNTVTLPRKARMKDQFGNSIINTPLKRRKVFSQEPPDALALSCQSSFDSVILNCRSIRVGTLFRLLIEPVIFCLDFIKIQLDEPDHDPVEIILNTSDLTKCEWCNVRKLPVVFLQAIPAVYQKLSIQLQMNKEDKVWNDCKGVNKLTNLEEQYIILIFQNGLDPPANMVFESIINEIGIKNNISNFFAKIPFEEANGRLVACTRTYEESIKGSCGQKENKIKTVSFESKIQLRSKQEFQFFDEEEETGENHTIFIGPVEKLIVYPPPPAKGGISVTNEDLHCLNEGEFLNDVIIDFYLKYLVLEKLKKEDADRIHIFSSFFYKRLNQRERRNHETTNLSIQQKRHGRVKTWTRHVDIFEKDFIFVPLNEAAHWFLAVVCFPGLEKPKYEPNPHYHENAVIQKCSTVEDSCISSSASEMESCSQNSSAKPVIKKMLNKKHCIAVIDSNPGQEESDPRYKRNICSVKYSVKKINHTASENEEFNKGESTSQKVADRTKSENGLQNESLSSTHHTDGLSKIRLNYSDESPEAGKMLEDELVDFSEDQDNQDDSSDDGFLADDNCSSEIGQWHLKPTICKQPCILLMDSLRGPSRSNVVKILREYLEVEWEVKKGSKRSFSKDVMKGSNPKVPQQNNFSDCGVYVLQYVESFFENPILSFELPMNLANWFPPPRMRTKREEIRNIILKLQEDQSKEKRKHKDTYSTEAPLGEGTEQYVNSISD

[12] = target: T5, Sentrin-specific protease 8 (Homo sapiens, UniProt Q96LD8); type: functional;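 note: luminescence read-out of SENP8 inhibition, dose-response confirmation following an ultra-high-throughput screen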
T5 sequence (Q96LD8 whole entry): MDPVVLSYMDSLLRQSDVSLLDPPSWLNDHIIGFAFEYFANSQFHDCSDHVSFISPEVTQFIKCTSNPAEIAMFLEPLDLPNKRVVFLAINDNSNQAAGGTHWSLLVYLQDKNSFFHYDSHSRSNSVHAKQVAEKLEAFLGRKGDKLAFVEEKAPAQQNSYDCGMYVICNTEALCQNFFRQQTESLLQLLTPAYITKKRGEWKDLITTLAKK

[13] = A cytotoxicity screen of small molecule inhibitors of the PhoP region in Salmonella typhi identified in the primary screen. [Related pubchem assays: 1850, 1864, 1985 ]; type: functional
[14] = reduced cellular PGC1a acetyl-lysine signal – cell-based, cherry-picked samples, dose response (AID 720514); type: functional;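 note: potency may reflect raised or lowered acetylation signal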
[15] = target: 26S proteasome non-ATPase regulatory subunit 14 (Homo sapiens, UniProt O00487); assay: inhibition of proteasome subunit RPN11 – biochemical, fluorescence polarization, uHTS hits, confirmation (AID 602368); type: functional
26S proteasome non-ATPase regulatory subunit 14, sequence (O00487 whole entry): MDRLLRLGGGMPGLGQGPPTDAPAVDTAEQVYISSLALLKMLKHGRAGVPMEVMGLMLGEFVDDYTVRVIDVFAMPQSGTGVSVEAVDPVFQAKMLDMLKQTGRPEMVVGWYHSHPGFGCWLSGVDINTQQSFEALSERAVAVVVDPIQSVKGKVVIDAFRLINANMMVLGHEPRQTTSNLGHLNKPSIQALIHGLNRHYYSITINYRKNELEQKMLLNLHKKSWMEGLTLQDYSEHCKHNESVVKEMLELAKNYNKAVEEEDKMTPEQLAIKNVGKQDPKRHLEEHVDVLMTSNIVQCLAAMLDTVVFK

[16] = target: 72 kDa type IV collagenase (Homo sapiens, UniProt P08253); assay: Dose Response validation of uHTS RPN11 inhibitor hits using a MMP-2 Fluorescence assay.; type: functional
72 kDa type IV collagenase, sequence (P08253 whole entry): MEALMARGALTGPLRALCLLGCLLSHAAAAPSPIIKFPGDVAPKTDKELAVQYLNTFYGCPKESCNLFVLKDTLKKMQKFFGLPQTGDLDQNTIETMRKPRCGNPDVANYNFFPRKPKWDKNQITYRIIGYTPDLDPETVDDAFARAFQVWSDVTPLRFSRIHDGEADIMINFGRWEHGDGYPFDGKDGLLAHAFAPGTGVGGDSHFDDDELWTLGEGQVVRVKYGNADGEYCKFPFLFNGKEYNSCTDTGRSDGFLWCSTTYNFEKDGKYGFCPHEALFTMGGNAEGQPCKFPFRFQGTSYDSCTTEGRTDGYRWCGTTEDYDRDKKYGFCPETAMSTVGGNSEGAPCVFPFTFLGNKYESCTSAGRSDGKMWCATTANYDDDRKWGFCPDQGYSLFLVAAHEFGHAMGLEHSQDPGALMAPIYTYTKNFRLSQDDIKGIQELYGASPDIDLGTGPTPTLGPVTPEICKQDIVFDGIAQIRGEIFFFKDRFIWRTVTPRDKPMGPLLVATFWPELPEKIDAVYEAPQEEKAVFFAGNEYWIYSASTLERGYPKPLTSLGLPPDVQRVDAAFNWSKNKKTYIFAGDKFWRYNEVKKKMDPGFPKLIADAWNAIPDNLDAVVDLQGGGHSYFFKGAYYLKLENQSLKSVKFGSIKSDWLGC

[17] = target: Prothrombin (Bos taurus, UniProt P00735); assay: thrombin protease inhibitors – biochemical, fluorescence polarization, uHTS hits, dose response (AID 602369); type: functional
[18] = system: INS1; assay: INS-1E survival protection against cytokine death – cell-based, luminescence, retest, dose response (AID 449756); type: functional; settings: Rattus norvegicus;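 note: cell death triggered by IL-1 beta plus TNF-alpha plus IFN-gamma mixture; protective hits raise ATP signal compared with cytokine alone wells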
[19] = target: Paired box protein Pax-8 (Homo sapiens, UniProt Q06710); assay: PAX8 transcriptional activity inhibition in RMG-I – RMG-I cells, luciferase, cherry-pick, dose response (AID 687027); type: functional, cell-based;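 note: luciferase reporter driven by Pax8 target thyroperoxidase promoter measured by SteadyGlo luminescence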
Paired box protein Pax-8, sequence (Q06710 whole entry): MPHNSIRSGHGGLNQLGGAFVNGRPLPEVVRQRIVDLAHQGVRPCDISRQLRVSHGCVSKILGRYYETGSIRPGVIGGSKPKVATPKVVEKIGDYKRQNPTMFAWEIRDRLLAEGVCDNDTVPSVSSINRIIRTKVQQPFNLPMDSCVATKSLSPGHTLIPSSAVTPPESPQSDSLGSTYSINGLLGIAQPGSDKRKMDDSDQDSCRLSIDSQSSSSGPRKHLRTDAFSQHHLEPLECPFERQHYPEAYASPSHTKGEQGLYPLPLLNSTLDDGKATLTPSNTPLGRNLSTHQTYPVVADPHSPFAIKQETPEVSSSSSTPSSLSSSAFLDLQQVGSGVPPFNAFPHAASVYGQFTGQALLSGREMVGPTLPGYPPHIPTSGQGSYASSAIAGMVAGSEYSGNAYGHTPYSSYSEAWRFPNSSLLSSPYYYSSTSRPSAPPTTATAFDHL

[20] = intracellular Trypanosoma cruzi inhibitors in host cells – cell-based, plate reader, cherry-pick samples, set 3, dose response (AID 651818); type: functional;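 note: compounds incubated with infected cells for about four days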
[21] = blockers of HIV-1 envelope-mediated cell-cell fusion – cherry-pick, dose response (AID 652057); type: functional, cell-based
[22] = blockers of HIV-1 ZM109 envelope-driven cell-cell fusion – HeLa effector, CEM target cells, luciferase, cherry-pick, dose response (AID 652058); type: functional, cell-based;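 note: luciferase signal from HIV-1 Env mediated cell-cell fusion of effector and target cells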
[23] = HIV-1 AD8 envelope cell-cell fusion blockers – cherry-pick, dose response (AID 652062); type: functional, cell-based;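 note: luciferase signal from cell-cell fusion driven by HIV-1 clade B AD8 Env; potency is for inhibitors of fusion seen as a drop in luminescence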
[24] = growth inhibition of yeast DHODH-expressing 3D7 parasites – SYBR Green, dry powder samples, dose response (AID 1159570); type: functional, cell-based;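 note: parasite growth measured after 72 hours of compound exposure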
[25] = toxicity to human HepG2 hepatoma cells – cell-based, plate reader, dry powder samples, cytotoxicity control, dose response (AID 1159569); type: functional;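 note: inhibitor potency with signal falling toward the positive control level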
[26] = P. falciparum Dd2 growth inhibitors, dose response, SYBR Green, cherry-picked samples (AID 1159567); type: functional, cell-based
[27] = Dd2 malaria parasite growth inhibition potency – SYBR Green, dry powder samples, dose response (AID 1159566); type: functional, cell-based;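 note: potency for growth inhibition with lower SYBR green DNA signal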
[28] = growth inhibition of PfATP4-mutant resistant parasites – NITD609-resistant line, SYBR Green, dry powder, dose response (AID 1159571); type: functional, cell-based;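 note: parasites synchronized at ring stage by sorbitol before testing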

COc1ccc(CCn2c(C3CCCCC3)nc3c(c(=O)c4ccccc4n3C)c2=O)cc1
EC50 [1]: > 120 µM (not active)
EC50 [2]: 0.438 µM (active)
EC50 [3]: 17.1 µM (active)
AC50 [4]: 2.4 µM (active)
CC50 [5]: 9.23 µM (active)

CC[N+]1=CN(c2ccccc2)C(C)=CC1(C)C
IC50 [6]: 6.23 µM (active)

COCn1c(COc2ccccc2)nc2ccccc21
EC50 [7]: > 91.2 µM (inactive)
EC50 [8]: > 91.2 µM (inactive)

COc1ccccc1CNC(=O)COc1ccccc1C(=O)c1cnn(-c2ccccc2)c1
IC50 [9]: 21.9 µM (active)
IC50 [10]: 11.4 µM (active)
IC50 [11]: 26.1 µM (active)
IC50 [12]: 24.3 µM (active)

CC1CCC[C@H](O)CCCCCc2cc(O)cc(O)c2C(=O)O1 (stereo partly drawn)
EC50 [13]: > 50 µM (active)
AC50 [14]: 35.9 µM (active)

Cc1cc(OCC[N+]2(C)CCCCC2)nc2ccccc12
IC50 [6]: 3.69 µM (active)

O=C(O)c1ccc(COc2ccccc2/C=C2/NC(=O)N(c3cccc(Cl)c3)C2=O)cc1
IC50 [6]: 2.75 µM (active)
IC50 [15]: 18.7 µM (active)
IC50 [16]: 15.6 µM (active)
IC50 [17]: > 100 µM (inactive)

C=C1C(=O)OC2C1CCC(C)C1C=CC(=O)C12C (stereo not drawn)
EC50 [7]: > 91.2 µM (inactive)
EC50 [8]: > 91.2 µM (inactive)

COc1cc(Cl)c(NC2=CC(=O)C(=O)c3ccccc32)c(OC)c1
AC50 [4]: 1.15 µM (active)
IC50 [9]: 28.8 µM (active)
IC50 [10]: 15.6 µM (active)
IC50 [11]: 9.11 µM (active)
IC50 [12]: 14.5 µM (active)
AC50 [18]: 3.33 µM (active)
AC50 [19]: 4.49 µM (active)

C[C@@H]1CN([C@H](C)CO)C(=O)c2cccc(NC(=O)Nc3cccc4ccccc34)c2O[C@@H]1CN(C)Cc1ccc(C(F)(F)F)cc1
AC50 [20]: 6.48 µM (active)

C[C@H]1CN([C@@H](C)CO)C(=O)Cc2cc(NC(=O)Nc3ccc(C(F)(F)F)cc3)ccc2O[C@@H]1CN(C)CC1CCCCC1
AC50 [20]: 3.54 µM (active)

COc1ccc(S(=O)(=O)Nc2ccc3c(c2)C(=O)N([C@H](C)CO)C[C@H](C)[C@@H](CN(C)Cc2ccc(Cl)c(Cl)c2)OCCCC[C@@H](C)O3)cc1
AC50 [20]: 2.64 µM (active)
AC50 [19]: 10.2 µM (active)

C[C@@H]1CN([C@H](C)CO)C(=O)Cc2cc(NC(=O)Nc3ccc4c(c3)OCO4)ccc2O[C@@H]1CN(C)Cc1ccc(C(=O)Nc2ccccc2N)cc1
AC50 [20]: 2.04 µM (active)

C[C@H](CO)N1C[C@H](C)[C@@H](CN(C)Cc2ccc(Cl)c(Cl)c2)Oc2c(NC(=O)Nc3cccc4ccccc34)cccc2C1=O
AC50 [20]: 9.77 µM (active)

COc1ccc(CNC(=O)N(C)C[C@@H]2OCc3ccccc3-c3c(n(C)c4ccccc34)C(=O)N([C@H](C)CO)C[C@@H]2C)cc1
AC50 [21]: < 0.235 µM (active)
AC50 [22]: < 0.235 µM (active)
AC50 [23]: < 0.235 µM (active)

COc1ccc(-c2cnc3c(c2)C(=O)N([C@H](C)CO)C[C@@H](C)[C@@H](CN(C)C(=O)Nc2c(C)noc2C)O3)cc1
AC50 [14]: 12.2 µM (active)

COc1ccc(S(=O)(=O)N(C)C[C@@H]2Oc3cc(-c4ccccc4OC)ccc3S(=O)(=O)N([C@H](C)CO)C[C@H]2C)cc1
AC50 [24]: 0.894 µM (active)
AC50 [25]: > 100 µM (inactive)
AC50 [26]: 1.12 µM (active)
AC50 [27]: 0.653 µM (active)
AC50 [28]: 0.766 µM (active)
